Tested on: gp60-mediated caveolar transcytosis
Assay: Inhibition of transport of paclitaxel from ABX across endothelial monolayers
Format: cell-based, human
Excerpt: Transport was dependent on albumin.

Row | Compound | effect on transport of paclitaxel from ABX across endothelial monolayers
1 | CCN1C(=O)C=CC1=O [NEM] | inhibited
2 | β-methyl cyclodextrin [BMC] | inhibited

— patent US7332568B2, “Q3 SPARC deletion mutant and uses thereof” (Abraxis BioScience, Inc., priority 2005, dated 2008)
